Data as given in patent US12209079B2 (GENERAL INCORPORATED ASSOCIATION PHARMA VALLEY PROJECT …, priority 2017, dated 2025).
Where a name gives a salt, the structure may show the parent alone.

Key:
[1] = molecular target: rhTDO (recombinant human TDO) (Homo sapiens, UniProt P48775); test: Enzyme assay using rhTDO (rate of kynurenine production); type: biochemical; details: 2 h; final concentration of the compound 10 μM; rate relative to reaction without compound; read-out: rhTDO-mediated kynurenine production
Procedure: 4 μL of a compound solution was added to 176 μL of a rhTDO reaction solution (0.5 M potassium phosphate buffer (20 μL), 0.2 M ascorbic acid (20 μL), 0.5 mM methylene blue (4 μL), 10 mg/mL catalase (2 μL), H2O (128 μL), and rhTDO (2 μL)). The mixture was pipetted and preincubated at 37° C. for 10 minutes. Then, the whole amount was brought to 200 μL by the addition of 20 μL of a 20 mM aqueous tryptophan solution, and the mixture was pipetted again and reacted at 37° C. for 120 minutes. After the reaction, the enzymatic reaction was terminated by the addition of 40 μL of a 30% [v/v] aqueous trichloroacetic acid solution to the reaction solution. The mixture was well stirred by pipetting and heated at 50° C. for 15 minutes so that N-formylkynurenine was converted to kynurenine. The reaction solution thus heated was centrifuged (15,000 rpm, 5 min, 24° C.), and 150 μL of the supernatant was transferred to a transparent 96-well flat-bottomed plate, followed by the measurement of absorbance at 490 nm using SpectraMax M5 SK (background measurement). After the measurement, a solution of 2% [w/v] p-dimethylbenzaldehyde in acetic acid was added at 150 μL/well and reacted for 5 minutes, followed by the measurement of absorbance at 490 nm again. The rate of kynurenine production was calculated according to the following expression. Rate of kynurenine production (%) for each compound in the case of using rhTDO={(Absorbance at 490 nm in the tryptophan-containing aqueous solution comprising rhTDO and the compound of the present invention−Absorbance of the background)/(Absorbance at 490 nm in the tryptophan-containing aqueous solution without the addition of the compound solution−Absorbance of the background)}×100 IDO Cell-Based Assay Protocol

[2] = molecular target: T1, IDO in A431 cells (Homo sapiens, UniProt P14902); test: IDO cell-based assay, kynurenine production in IFN-γ stimulated A431 cells; details: A-431, 24 h; final concentration of the compound 10 μM; rate relative to culture without compound
T1 construct: endogenous in cells; host or cells: A431 cells, IFN-γ stimulated
Procedure: A431 cells (3.0×10^5 cells/mL) suspended in a culture medium for assay (D-MEM; Wako 040-30095, 5% FBS, 50 units/mL penicillin, 50 μg/mL streptomycin, and 2 mM L-glutamine) were inoculated at 100 μL/well to a transparent 96-well flat-bottomed plate and cultured at 37° C. for 24 hours in 5% CO2. The culture medium was removed from the cells thus cultured. A tryptophan-containing culture medium (culture medium for assay supplemented with 178 μM L-tryptophan) was added at 80 μL/well, and further, a compound solution was added at 10 μL/well. The cells were preincubated for 1 hour. Then, the whole amount was brought to 100 μL/well by the addition of 10 μL/well of IFN-γ diluted into 100 ng/mL with a tryptophan-containing culture medium, and the cells were cultured for 24 hours. After the culture, absorbance was measured at 460 nm using SpectraMax MSSK (Molecular Devices, LLC) (background measurement). After the measurement, a kynurenine quantification reagent (prepared with 7% [v/v] aqueous trichloroacetic acid solution and a solution of 2% [w/v] p-dimethylbenzaldehyde in acetic acid at 2:5 [v/v]) was added at 200 μL/well and reacted for 5 minutes, followed by the measurement of absorbance at 460 nm again. The rate of kynurenine production was calculated according to the following expression. Rate of kynurenine production (%) for each compound in the case of using A431 cells={(Absorbance at 460 nm in the tryptophan-containing culture medium comprising the A431 cells and the solution of the compound of the present invention−Absorbance of the background)/(Absorbance at 460 nm in the tryptophan-containing culture medium without the addition of the compound solution−Absorbance of the background)}×100 TDO Cell-Based Assay Protocol

[3] = molecular target: rhIDO (recombinant human IDO) (Homo sapiens, UniProt P14902); test: Enzyme assay using rhIDO (rate of kynurenine production); type: biochemical; details: 2 h; final concentration of the compound 10 μM; rate relative to reaction without compound; read-out: rhIDO-mediated kynurenine production
Procedure: Enzyme Assay Protocol Using rhIDO (Recombinant Human IDO)
4 μL of a compound solution was added to 176 μL of a rhIDO reaction solution (0.5 M potassium phosphate buffer (20 μL), 0.2 M ascorbic acid (20 μL), 0.5 mM methylene blue (4 μL), 10 mg/mL catalase (2 μL), H2O (128 μL), and rhIDO (2 μL)). The mixture was pipetted and preincubated at 37° C. for 10 minutes. Then, the whole amount was brought to 200 μL by the addition of 20 μL of a 2 mM aqueous tryptophan solution, and the mixture was pipetted again and reacted at 37° C. for 120 minutes. After the reaction, the enzymatic reaction was terminated by the addition of 40 μL of a 30% [v/v] aqueous trichloroacetic acid solution to the reaction solution. The mixture was well stirred by pipetting and heated at 50° C. for 15 minutes so that N-formylkynurenine was converted to kynurenine. The reaction solution thus heated was centrifuged (15,000 rpm, 5 min, 24° C.), and 150 μL of the supernatant was transferred to a transparent 96-well flat-bottomed plate, followed by the measurement of absorbance at 490 nm using SpectraMax MSSK (background measurement). After the measurement, a solution of 2% [w/v] p-dimethylbenzaldehyde in acetic acid was added at 150 μL/well and reacted for 5 minutes, followed by the measurement of absorbance at 490 nm again. The rate of kynurenine production was calculated according to the following expression. Rate of kynurenine production (%) for each compound in the case of using rhIDO={(Absorbance at 490 nm in the tryptophan-containing aqueous solution comprising rhIDO and the compound of the present invention−Absorbance of the background)/(Absorbance at 490 nm in the tryptophan-containing aqueous solution without the addition of the compound solution−Absorbance of the background)}×100 Enzyme Assay Protocol Using rhTDO (Recombinant Human TDO)

[4] = molecular target: T2, TDO in A172 cells (Homo sapiens, UniProt P48775); test: TDO cell-based assay, kynurenine production in A172 cells; details: A 172; final concentration of the compound 10 μM; rate relative to culture without compound
T2 construct: endogenous in cells; host or cells: A172 cells
Procedure: A172 cells (3.0×10^5 cells/mL) suspended in a culture medium for assay (PRMI-1640; Wako 186-02155, 5% FBS, 50 units/mL penicillin, and 50 μg/mL streptomycin) were inoculated at 100 μL/well to a transparent 96-well flat-bottomed plate and cultured at 37° C. for 24 hours in 5% CO2. The culture medium was removed from the cells thus cultured. A culture medium for assay was added at 80 μL/well, and further, a compound solution was added at 10 μL/well. The cells were preincubated for 1 hour. Then, the whole amount was brought to 100 μL/well by the addition of 10 μL/well of a 5 mM aqueous tryptophan solution (final concentration of L-tryptophan: 524 μM), and the cells were cultured for 24 hours. After the culture, absorbance was measured at 460 nm using SpectraMax MSSK (Molecular Devices, LLC) (background measurement). After the measurement, a kynurenine quantification reagent (prepared with 7% [v/v] aqueous trichloroacetic acid solution and a solution of 2% [w/v] p-dimethylbenzaldehyde in acetic acid at 2:5 [v/v]) was added at 200 μL/well and reacted for 5 minutes, followed by the measurement of absorbance at 460 nm again. The rate of kynurenine production was calculated according to the following expression. Rate of kynurenine production (%) for each compound in the case of using A172 cells={(Absorbance at 460 nm in the tryptophan-containing culture medium comprising the A172 cells and the solution of the compound of the present invention−Absorbance of the background)/(Absorbance at 460 nm in the tryptophan-containing culture medium without the addition of the compound solution−Absorbance of the background)}×100

T2 sequence (P48775 whole entry): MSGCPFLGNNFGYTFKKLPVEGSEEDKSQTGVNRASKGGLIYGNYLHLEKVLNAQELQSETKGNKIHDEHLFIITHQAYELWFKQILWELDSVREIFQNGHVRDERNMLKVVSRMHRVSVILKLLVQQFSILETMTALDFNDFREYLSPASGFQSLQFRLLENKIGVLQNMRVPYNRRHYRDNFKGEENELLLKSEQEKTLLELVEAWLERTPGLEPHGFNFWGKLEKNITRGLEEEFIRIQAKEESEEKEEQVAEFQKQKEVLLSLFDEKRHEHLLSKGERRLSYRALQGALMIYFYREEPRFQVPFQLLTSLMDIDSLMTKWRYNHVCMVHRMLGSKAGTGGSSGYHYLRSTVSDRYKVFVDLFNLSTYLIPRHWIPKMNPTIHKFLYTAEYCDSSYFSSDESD
rhTDO (recombinant human TDO), sequence (P48775 whole entry): as above
rhIDO (recombinant human IDO), sequence (P14902 whole entry): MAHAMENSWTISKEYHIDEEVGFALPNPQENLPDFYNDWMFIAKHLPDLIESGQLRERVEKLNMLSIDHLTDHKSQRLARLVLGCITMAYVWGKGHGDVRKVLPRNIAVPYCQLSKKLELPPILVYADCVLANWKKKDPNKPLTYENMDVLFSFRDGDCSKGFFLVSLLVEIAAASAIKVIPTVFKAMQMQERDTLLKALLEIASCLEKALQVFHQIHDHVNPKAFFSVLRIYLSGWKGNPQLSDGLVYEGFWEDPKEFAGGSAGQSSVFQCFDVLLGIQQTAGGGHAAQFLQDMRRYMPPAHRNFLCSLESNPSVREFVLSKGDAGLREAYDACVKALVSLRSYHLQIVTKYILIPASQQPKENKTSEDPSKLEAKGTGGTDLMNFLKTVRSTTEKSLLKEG
T1 sequence (P14902 whole entry): as above

Row | Structure (SMILES) | remaining activity at 10 µM [1] | remaining activity at 10 µM [2] | remaining activity at 10 µM [3] | remaining activity at 10 µM [4]
1 | Brc1ccc(CCN2CN=C(SCc3ccccc3CSC3=NCN(CCc4ccc(Br)cc4)CN3)NC2)cc1 [Compound 20, 1,2-bis(((5-(4-bromophenethyl)-1,4,5,6-tetrahydro-1,3,5-triazin-2-yl)thio)methyl)benzene] | 44% | 6% | 27% | 0%
2 | Clc1ccc(CCN2CN=C(SCc3ccccc3CSC3=NCN(CCc4ccc(Cl)cc4Cl)CN3)NC2)c(Cl)c1 [Compound 21, 1,2-bis(((5-(2,4-dichlorophenethyl)-1,4,5,6-tetrahydro-1,3,5-triazin-2-yl)thio)methyl)benzene] | 54% | 6% | 30% | -1%
3 | Clc1ccc(CCN2CN=C(SCc3ccccc3CSC3=NCN(CCc4ccc(Cl)c(Cl)c4)CN3)NC2)cc1Cl [Compound 22, 1,2-bis(((5-(3,4-dichlorophenethyl)-1,4,5,6-tetrahydro-1,3,5-triazin-2-yl)thio)methyl)benzene] | 21% | 6% | 20% | -1%
4 | Cc1ccc(CCN2CN=C(SCc3ccccc3CSC3=NCN(CCc4ccc(C)c(C)c4)CN3)NC2)cc1C [Compound 23, 1,2-bis(((5-(3,4-dimethylphenethyl)-1,4,5,6-tetrahydro-1,3,5-triazin-2-yl)thio)methyl)benzene] | 24% | 6% | 18% | -4%
5 | Cc1ccc(C)c(CCN2CN=C(SCc3ccccc3CSC3=NCN(CCc4cc(C)ccc4C)CN3)NC2)c1 [Compound 24, 1,2-bis(((5-(2,5-dimethylphenethyl)-1,4,5,6-tetrahydro-1,3,5-triazin-2-yl)thio)methyl)benzene] | 25% | 4% | 27% | -2%
6 | COc1ccc(CN2CN=C(SCc3ccccc3CSC3=NCN(Cc4ccc(OC)cc4)CN3)NC2)cc1 [Compound 26, 1,2-bis(((5-(4-methoxybenzyl)-1,4,5,6-tetrahydro-1,3,5-triazin-2-yl)thio)methyl)benzene] | 44% | 5% | 36% | -5%
7 | COc1ccc(CN2CN=C(SCc3ccccc3CSC3=NCN(Cc4ccc(OC)cc4OC)CN3)NC2)c(OC)c1 [Compound 27, 1,2-bis(((5-(2,4-dimethoxybenzyl)-1,4,5,6-tetrahydro-1,3,5-triazin-2-yl)thio)methyl)benzene] | 56% | 7% | 33% | -3%
8 | Clc1ccccc1CCN1CN=C(SCc2ccccc2CSC2=NCN(CCc3ccccc3Cl)CN2)NC1 [Compound 28, 1,2-bis(((5-(2-chlorophenethyl)-1,4,5,6-tetrahydro-1,3,5-triazin-2-yl)thio)methyl)benzene] | 53% | 7% | 40% | 3%
9 | O=C1CC(=O)NC(SCc2ccccc2CSC2=NC(=O)CC(=O)N2)=N1 [Compound 30, 2,2′-((1,2-phenylenebis(methylene))bis(sulfanediyl))bis(pyrimidine-4,6(1H,5H)-dione)] | 126% | 82% | 141% | 94%
10 | COC(=O)c1c(CSC(=N)N)[nH]c2ccccc12 [Compound 32, Methyl 2-((carbamimidoylthio)methyl)-1H-indole-3-carboxylate hydrobromide] | 51% | 54% | 59% | 52%
11 | N=C(N)SCc1cccnc1CSC(=N)N [Compound 34, Pyridine-2,3-diylbis(methylene) dicarbamimidothioate dihydrobromide] | 27% | 29% | 25% | 47%
12 | COc1ccc(CSC(=N)N)c(CSC(=N)N)c1 [Compound 35, (4-Methoxy-1,2-phenylene)bis(methylene) dicarbamimidothioate dihydrobromide] | 7% | 4% | 24% | 0%
13 | N=C(N)SCc1cc(Cl)c(Cl)cc1CSC(=N)N [Compound 36, (4,5-dichloro-1,2-phenylene)bis(methylene) dicarbamimidothioate dihydrobromide] | < 3% | 1% | < 1% | -15%
